Results reported in PMC6016545 (Journal of medicinal chemistry, 2016).
pIC50: −log10 of the molar value. Read-outs that look alike come from different tables or passages of the source.

Experiments:
[1] = tested on: PSMA(+) PC3-PIP cells; conditions: cited from earlier work
[2] = molecular target: T1, PSMA (Homo sapiens, UniProt Q04609); test: PSMA inhibition, IC50 determination
[3] = molecular target: T1, PSMA; test: Mode of inhibition study; conditions: reversible, slowly reversible, or irreversible

T1 sequence (Q04609 whole entry): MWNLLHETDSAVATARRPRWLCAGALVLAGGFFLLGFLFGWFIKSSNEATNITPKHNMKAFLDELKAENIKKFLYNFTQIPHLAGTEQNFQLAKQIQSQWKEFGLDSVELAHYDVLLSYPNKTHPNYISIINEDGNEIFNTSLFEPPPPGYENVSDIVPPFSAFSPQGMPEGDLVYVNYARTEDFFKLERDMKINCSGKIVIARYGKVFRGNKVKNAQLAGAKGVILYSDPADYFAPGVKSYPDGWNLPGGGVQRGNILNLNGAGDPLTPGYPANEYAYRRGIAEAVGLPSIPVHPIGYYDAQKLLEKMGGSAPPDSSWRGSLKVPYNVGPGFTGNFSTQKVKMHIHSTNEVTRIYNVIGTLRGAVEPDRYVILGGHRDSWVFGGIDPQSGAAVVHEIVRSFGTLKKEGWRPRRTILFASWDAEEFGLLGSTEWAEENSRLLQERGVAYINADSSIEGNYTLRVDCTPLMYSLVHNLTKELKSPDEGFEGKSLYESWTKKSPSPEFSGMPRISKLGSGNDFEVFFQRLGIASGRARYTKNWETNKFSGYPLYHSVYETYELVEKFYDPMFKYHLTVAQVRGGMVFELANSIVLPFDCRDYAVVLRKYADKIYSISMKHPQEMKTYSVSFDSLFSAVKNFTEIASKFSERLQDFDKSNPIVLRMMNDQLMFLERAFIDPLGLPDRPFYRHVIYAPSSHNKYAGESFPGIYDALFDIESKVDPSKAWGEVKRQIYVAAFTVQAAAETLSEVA

Compound | pIC50 [2] | mode of binding to PSMA [3] | further results
O=C(O)CC[C@H](NC(=O)N[C@@H](CSCc1ccc([18F])cc1)C(=O)O)C(=O)O [[^18F]DCFBC, N[N-[(S)-1,3-dicarboxypropyl]carbamoyl]-4-[^18F] fluorobenzyl-L-cysteine] | – | – | tumor uptake ([1]; PSMA(+) PC3-PIP cells): 4.7%; tumor/blood ratio ([1]; PSMA(+) PC3-PIP cells): 13
O=C(O)CCC(NC(=O)NC(CCCCNC(=O)c1ccc([18F])nc1)C(=O)O)C(=O)O (stereo not shown) [[^18F]DCFPyL, 2-(3-(1-carboxy-5-[(6-[^18F]-fluoropyridine-3-carbonyl)amino]pentyl)ureido)pentanedioic acid] | – | – | liver uptake ([1]; 2 h): 2.14%; renal uptake ([1]; 2 h): 15.7%; tumor uptake ([1]; 2 h in PC3-PIP cells): 39.4%
NCCCCCC(=O)NCCCCCC(=O)N[C@@H](CCC(=O)N[C@H](CCCOP(=O)(O)NC(CCC(=O)O)C(=O)O)C(=O)O)C(=O)O (stereo partly drawn) [compound 3, 2-(((S)-((4R)-4-(4-(6-(6-Aminohexanamido)-hexanamido)-4-carboxybutanamido)-4-carboxybutoxy)-(hydroxy)phosphoryl)amino)pentanedioic Acid] | 8.11 | – | –
O=C(O)CC[C@H](NP(=O)(O)OCCC[C@H](NC(=O)CC[C@H](NC(=O)CCCCCNC(=O)c1ccc(F)cc1)C(=O)O)C(=O)O)C(=O)O [compound 5] | 9.40 | irreversible | –
O=C(O)CCC(NP(=O)(O)OCCC[C@@H](NC(=O)CC[C@H](NC(=O)CCCCCNC(=O)CCCCCNC(=O)c1ccc(F)cc1)C(=O)O)C(=O)O)C(=O)O (stereo partly drawn) [compound 6, 2-(((S)-(((22R)-17,22-Dicarboxy-1-(4-fluoro-phenyl)-1,8,15,20-tetraoxo-2,9,16,21-tetraazapentacosan-25-yl)oxy)(hydroxy)phosphoryl)amino)pentanedioic Acid] | 9.05 | irreversible | –
